# The source made the active and inactive calls. The calls are words filed in the database; no cut-off is given here.
# Tested on: Mycobacterium tuberculosis
# Assay: Antimycobacterial activity against Mycobacterium tuberculosis H37Ra at 200 ug/ml after 24 hrs by microtiter alamar blue assay
# Format: functional, organism-based
row,SMILES,MIC
1,C=CCOc1ccc(/C=C/C(=O)CC(=O)/C=C/c2ccc(OCC=C)c(OC)c2)cc1OC,inactive
2,COc1ccc(/C=C/c2cc(/C=C/c3ccc(OC)cc3)on2)cc1,inactive
3,COc1cc(CCC(O)CC(O)CCc2ccc(O)c(OC)c2)ccc1O (stereo not drawn),inactive
4,CCCCCOc1ccc(/C=C/c2cc(/C=C/c3ccc(OCCCCC)c(OC)c3)on2)cc1OC,inactive

# Tested on: Mycobacterium tuberculosis
# Assay: Antimycobacterial activity against Mycobacterium tuberculosis H37Ra after 24 hrs by microtiter alamar blue assay
# Format: functional
row,SMILES,MIC [µg/mL]
1,NNC(=O)c1ccncc1 [ISONIAZID],0.06
2,COc1cc(/C=C/C=C/C(=O)/C=C/c2ccc(O)c(OC)c2)ccc1O,12.5
3,COc1cc(/C=C/C(=O)CC(=O)/C=C/c2ccc(OC(C)=O)c(OC)c2)ccc1OC(C)=O,200
4,CCCOc1ccc(/C=C/C(=O)CC(=O)/C=C/c2ccc(OCCC)c(OC)c2)cc1OC,200
5,COc1cc(/C=C/C(=O)CC(=O)/C=C/c2ccc(OC)c(OC)c2)ccc1O,50
6,CCCOc1ccc(/C=C/C(=O)CC(=O)/C=C/c2ccc(O)c(OC)c2)cc1OC,25
7,CCCCCOc1ccc(/C=C/C(=O)CC(=O)/C=C/c2ccc(OCCCCC)c(OC)c2)cc1OC,100
8,COc1cc(/C=C/c2cc(CCc3ccc(O)c(OC)c3)on2)ccc1O,6.25
9,COc1cc(/C=C/c2cc(/C=C/c3ccc(O)cc3)[nH]n2)ccc1O,100
10,COc1cc(/C=C/c2cc(/C=C/c3ccc(O)c(OC)c3)n(-c3ccccc3)n2)ccc1O,25
11,COc1cc(/C=C/C(O)=C/C(=O)/C=C/c2ccc(O)cc2)ccc1O [DEMETHOXYCURCUMIN],50
12,COc1cc(/C=C/C(=O)CC(=O)/C=C/c2ccc(O)c(O)c2)ccc1O,200
13,O=C(/C=C/c1ccc(O)cc1)CC(=O)/C=C/c1ccc(O)cc1 [BISDEMETHOXYCURCUMIN],25
14,CC(=O)Oc1ccc(/C=C/C(=O)CC(=O)/C=C/c2ccc(OC(C)=O)cc2)cc1,25
15,O=C(/C=C/c1ccc(O)cc1)CC(=O)/C=C/c1ccc(O)c(O)c1,200
16,COc1cc(/C=C/c2cc(/C=C/c3ccc(OC(C)=O)c(OC)c3)on2)ccc1OC(C)=O,1.56
17,COc1cc(/C=C/c2cc(/C=C/c3ccc(OC(C)=O)c(OC)c3)on2)ccc1O,1.56
18,CO[C@H]1/C=C/O[C@@]2(C)Oc3c(C)c(O)c4c(O)c(c(/C=N/N5CCN(C)CC5)c(O)c4c3C2=O)NC(=O)/C(C)=C\C=C\[C@H](C)[C@H](O)[C@@H](C)[C@@H](O)[C@@H](C)[C@H](OC(C)=O)[C@@H]1C [RIFAMPIN],0.004
19,O=C(/C=C/c1ccc(O)c(O)c1)CC(=O)/C=C/c1ccc(O)c(O)c1 [DIDEMETHYLCURCUMIN],100
20,COc1cc(CCc2cc(CCc3ccc(O)c(OC)c3)on2)ccc1O,100
21,COc1cc(/C=C/c2cc(/C=C/c3ccc(OC(C)=O)c(OC)c3)no2)ccc1O,1.56
22,COc1cc(/C=C/c2cc(/C=C/c3ccc(O)c(OC)c3)on2)ccc1O,1.56
23,CCCCCOc1ccc(/C=C/C(=O)CC(=O)/C=C/c2ccc(O)c(OC)c2)cc1OC,12.5
24,COc1cc(/C=C/C(=O)/C=C/CCc2ccc(O)c(OC)c2)ccc1O,12.5
25,COc1cc(/C=C/C(=O)CC(=O)/C=C/c2ccc(O)c(OC)c2)ccc1O [CURCUMIN],100

row,SMILES,MIC [µg/mL]
1,COc1cc(CCCCC(=O)CCc2ccc(O)c(OC)c2)ccc1O,100
2,COc1cc(/C=C/C(=O)CC(=O)CCc2ccc(O)c(OC)c2)ccc1O,200
3,COc1cc(/C=C/C(=O)CC(=O)/C=C/c2ccc(OC(C)=O)cc2)ccc1O,50
4,COc1cc(CCC(=O)CC(O)CCc2ccc(O)c(OC)c2)ccc1O (stereo not drawn) [HEXAHYDROCURCUMIN],100
5,CCCCCOc1ccc(/C=C/c2cc(/C=C/c3ccc(O)c(OC)c3)no2)cc1OC,6.25
6,C=CCOc1ccc(/C=C/C(=O)CC(=O)/C=C/c2ccc(O)c(OC)c2)cc1OC,100
7,COc1cc(/C=C/C(=O)CC(=O)/C=C/c2ccc(O)cc2)ccc1OC(C)=O,50
8,COc1cc(/C=C/c2cc(/C=C/c3ccc(OC)c(OC)c3)no2)ccc1O,0.09
9,COc1ccc(/C=C/c2cc(/C=C/c3ccc(OC)c(OC)c3)on2)cc1OC,0.39
10,Oc1ccc(/C=C/c2cc(/C=C/c3ccc(O)cc3)on2)cc1,12.5
11,COc1cc(/C=C/C(=O)CC(=O)/C=C/c2ccc(OCCO)c(OC)c2)ccc1O,200
12,NC[C@H]1O[C@H](O[C@H]2[C@H](O)[C@@H](O[C@H]3O[C@H](CO)[C@@H](O)[C@H](N)[C@H]3O)[C@H](N)C[C@@H]2N)[C@H](O)[C@@H](O)[C@@H]1O [KANAMYCIN],2.5
13,COc1cc(CC/C=C/C(=O)CCc2ccc(O)c(OC)c2)ccc1O,25
14,CC(=O)Oc1ccc(/C=C/C(=O)CC(=O)/C=C/c2ccc(O)cc2)cc1,25
15,Oc1ccc(/C=C/c2cc(/C=C/c3ccc(O)cc3)[nH]n2)cc1,25
16,CCCCCOc1ccc(/C=C/c2cc(/C=C/c3ccc(O)c(OC)c3)on2)cc1OC,0.39
17,Oc1ccc(/C=C/c2cc(/C=C/c3ccc(O)c(O)c3)on2)cc1O,200
18,COc1cc(/C=C/C(=O)CC(=O)/C=C/c2ccc(OC(C)=O)c(OC)c2)ccc1O,100
19,COc1cc(/C=C/C=C/C(=O)CCc2ccc(O)c(OC)c2)ccc1O,25
20,COc1cc(CCC(=O)CC(=O)CCc2ccc(O)c(OC)c2)ccc1O [TETRAHYDROCURCUMIN],50
21,COc1ccc(/C=C/C(=O)CC(=O)/C=C/c2ccc(OC)c(OC)c2)cc1OC [TETRAMETHOXYCURCUMIN],100
22,COc1cc(/C=C/C(=O)CC(=O)/C=C/c2ccc(OC(C)=O)cc2)ccc1OC(C)=O,100
23,COc1cc(/C=C/c2cc(/C=C/c3ccc(O)c(OC)c3)[nH]n2)ccc1O [CURCUMIN PYRAZOLE],200
24,COc1cc(/C=C/c2cc(/C=C/c3ccc(OC)c(OC)c3)on2)ccc1O,0.78
25,COc1cc(/C=C/C(=O)CC(=O)/C=C/c2ccc(OCCO)c(OC)c2)ccc1OCCO,200

# Tested on: Mycobacterium tuberculosis
# Assay: Antimycobacterial activity against Pan-sensitive Mycobacterium tuberculosis H37Ra after 24 hrs by microtiter alamar blue assay
# Format: functional
row,SMILES,MIC [µg/mL]
1,CCCCCOc1ccc(/C=C/c2cc(/C=C/c3ccc(O)c(OC)c3)no2)cc1OC,6.25
2,COc1cc(/C=C/c2cc(/C=C/c3ccc(OC)c(OC)c3)no2)ccc1O,0.09
3,CCCCCOc1ccc(/C=C/c2cc(/C=C/c3ccc(O)c(OC)c3)on2)cc1OC,0.39
4,COc1cc(/C=C/c2cc(/C=C/c3ccc(OC)c(OC)c3)on2)ccc1O,0.78
